# Read-outs that look alike come from different tables or passages of the source.
# Biological target: T1, ACAT 2 (Mus musculus, UniProt O88908)
# T1 construct: The source of ACAT 2 enzyme used was a membrane fraction derived from mouse liver microsome; from tissue; host or cells: mouse liver (microsome fraction)
# T1 sequence (O88908 1-525): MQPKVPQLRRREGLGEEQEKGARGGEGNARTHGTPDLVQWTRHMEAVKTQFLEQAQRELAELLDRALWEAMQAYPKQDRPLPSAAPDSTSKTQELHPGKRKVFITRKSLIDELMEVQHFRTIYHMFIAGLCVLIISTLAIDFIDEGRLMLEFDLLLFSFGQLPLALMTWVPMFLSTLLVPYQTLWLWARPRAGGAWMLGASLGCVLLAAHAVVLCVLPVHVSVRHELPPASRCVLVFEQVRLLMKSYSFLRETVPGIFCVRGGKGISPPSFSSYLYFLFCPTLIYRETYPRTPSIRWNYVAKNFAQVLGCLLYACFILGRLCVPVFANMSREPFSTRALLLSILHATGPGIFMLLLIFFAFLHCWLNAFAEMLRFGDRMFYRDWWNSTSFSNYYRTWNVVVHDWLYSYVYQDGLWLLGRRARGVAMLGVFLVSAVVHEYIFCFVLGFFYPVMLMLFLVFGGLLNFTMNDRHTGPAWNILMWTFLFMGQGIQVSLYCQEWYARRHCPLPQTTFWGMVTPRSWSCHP
# Experiment: ACAT-inhibiting activity, mouse liver microsome membrane fraction, [14C]oleoyl-CoA
# Type: biochemical
# Conditions: for Specific activity: (inhibitory activity of test compound)/(inhibitory activity of pyripyropene A): relative to pyripyropene A
# Description: The source of ACAT 2 enzyme used was a membrane fraction derived from mouse liver microsome. Mouse liver was homogenized in buffer solution A (50 mM Tris-HCl (pH 7.8), 1 mM ethylenediamine tetraacetate, and 1 mM phenylmethanesulfonyl fluoride) using a homogenizer of the Potter type (Tokyo-RIKO). The homogenate was centrifuged at 12000×g, and the supernatant was ultracentrifuged at 100000×g. The sediment was taken as a microsome fraction, and this fraction was adjusted to have a protein concentration of 5 mg/ml using buffer solution A.
# The chloroform layer was evaporated to dryness and was used to spot a thin layer chromatography plate (silica gel plate, Merck, 0.5 mm thickness). Elution for separation was carried out using a solvent of hexane/diethyl ether/acetic acid (70:30:1, v/v).
# [1] = mouse liver microsome, 5 minutes at 37° C.
Structure (SMILES),IC50 [1] [nM],Specific activity: (inhibitory activity of test compound)/(inhibitory activity of pyripyropene A),IC50 [nM]
"CSc1cccc(C(=O)O[C@H]2CC3C(C)(COC(C)=O)[C@@H](OC(C)=O)CC[C@]3(C)C3[C@@H](O)c4c(cc(-c5cccnc5)oc4=O)O[C@@]32C)c1 (stereo partly drawn) [PRD 023, 7-m-methylthiobenzoyl-7-deacetylpyripyropene A]",10 to 100,+++ (50 > specific activity > 10),–
"CSc1ccc(C(=O)O[C@H]2CC3C(C)(COC(C)=O)[C@@H](OC(C)=O)CC[C@]3(C)C3[C@@H](O)c4c(cc(-c5cccnc5)oc4=O)O[C@@]32C)cc1 (stereo partly drawn) [PRD 018, 7-p-methylthiobenzoyl-7-deacetylpyripyropene A]",10 to 100,+ (5 > specific activity > 1),–
"CC(=O)OCC1(C)C2C[C@H](OC(=O)c3ccc(F)cc3)[C@@]3(C)Oc4cc(-c5cccnc5)oc(=O)c4[C@H](O)C3[C@@]2(C)CC[C@@H]1OC(C)=O (stereo partly drawn) [PRD 020, 7-p-fluorobenzoyl-7-deacetylpyripyropene A]",< 10,+++ (50 > specific activity > 10),–
"CC12CO[Si](C(C)(C)C)(C(C)(C)C)O[C@H]1CC[C@@]1(C)C2C[C@H](OC(=O)c2ccc(C#N)cc2)[C@@]2(C)Oc3cc(-c4cccnc4)oc(=O)c3[C@H](OC(=O)c3ccc(C#N)cc3)C12 (stereo partly drawn) [PRD 060, 7,13-di-(O-p-cyanobenzoyl)-1,11-O-(di-tert-butylsilylene)-1,7,11-trideacetylpyripyropene A]",100 to 1000,+ (5 > specific activity > 1),–
"CC12COC(c3ccccc3)O[C@H]1CC[C@@]1(C)C2C[C@H](OC(=O)c2cccc(F)c2)[C@@]2(C)Oc3cc(-c4cccnc4)oc(=O)c3[C@H](O)C12 (stereo partly drawn) [PRD 047, 1,11-O-benzylidene-7-O-m-fluorobenzoyl-1,7,11-trideacetylpyripyropene A]",10 to 100,+++ (50 > specific activity > 10),–
"CC(=O)OCC1(C)C2C[C@H](OC(=O)C34CC5CC(CC(C5)C3)C4)[C@@]3(C)Oc4cc(-c5cccnc5)oc(=O)c4[C@H](O)C3[C@@]2(C)CC[C@@H]1OC(C)=O (stereo partly drawn) [PRD 022, 7-1-adamantanecarboxyl-7-deacetylpyripyropene A]",< 10,+++ (50 > specific activity > 10),–
"CC(=O)OCC1(C)C2C[C@H](OC(=O)c3cccc(C)c3)[C@@]3(C)Oc4cc(-c5cccnc5)oc(=O)c4[C@H](O)C3[C@@]2(C)CC[C@@H]1OC(C)=O (stereo partly drawn) [PRD 008, 7-m-methylbenzoyl-7-deacetylpyripyropene A]",–,+++ (50 > specific activity > 10),–
"CC(=O)OCC1(C)C2C[C@H](OC(=O)c3cccc(I)c3)[C@@]3(C)Oc4cc(-c5cccnc5)oc(=O)c4[C@H](O)C3[C@@]2(C)CC[C@@H]1OC(C)=O (stereo partly drawn) [PRD 005, 7-m-iodobenzoyl-7-deacetylpyripyropene A]",10 to 100,+++ (50 > specific activity > 10),–
"CC(=O)OCC1(C)C2C[C@H](OC(=O)c3cccc4ccccc34)[C@@]3(C)Oc4cc(-c5cccnc5)oc(=O)c4[C@H](O)C3[C@@]2(C)CC[C@@H]1OC(C)=O (stereo partly drawn) [PRD 038, 7-1-naphthoyl-7-deacetylpyripyropene A]",10 to 100,++ (10 > specific activity > 5),–
"CC12COC(c3ccccc3)O[C@H]1CC[C@@]1(C)C2C[C@H](OC(=O)c2cccc(C#N)c2)[C@@]2(C)Oc3cc(-c4cccnc4)oc(=O)c3[C@H](O)C12 (stereo partly drawn) [PRD 040, 1,11-O-benzylidene-7-O-m-cyanobenzoyl-1,7,11-trideacetylpyripyropene A]",10 to 100,+++ (50 > specific activity > 10),–
"CC(=O)OCC1(C)C2C[C@H](OC(=O)CCN3CCN(C)CC3)[C@@]3(C)Oc4cc(-c5cccnc5)oc(=O)c4[C@H](O)C3[C@@]2(C)CC[C@@H]1OC(C)=O (stereo partly drawn) [PRD 104, 7-O-3-(4-methylpiperazin-1-yl)propionyl-7-deacetylpyripyropene A]",100 to 1000,+ (5 > specific activity > 1),–
"CC(=O)OCC1(C)C2C[C@H](OC(=O)c3ccc(-c4ccccc4)cc3)[C@@]3(C)Oc4cc(-c5cccnc5)oc(=O)c4[C@H](O)C3[C@@]2(C)CC[C@@H]1OC(C)=O (stereo partly drawn) [PRD 034, 7-p-biphenyl-4-carboxyl-7-deacetylpyripyropene A]",100 to 1000,+ (5 > specific activity > 1),–
"CC(=O)OCC1(C)C2C[C@@H](N=[N+]=[N-])[C@@]3(C)Oc4cc(-c5cccnc5)oc(=O)c4[C@H](O)C3[C@@]2(C)CC[C@@H]1OC(C)=O (stereo partly drawn) [PRD 062, 7-(R)-azide-7-(S)-deacetylpyripyropene A]",100 to 1000,+ (5 > specific activity > 1),–
"COc1cccc(C(=O)O[C@H]2CC3C(C)(COC(C)=O)[C@@H](OC(C)=O)CC[C@]3(C)C3[C@@H](O)c4c(cc(-c5cccnc5)oc4=O)O[C@@]32C)c1 (stereo partly drawn) [PRD 002, 7-m-methoxybenzoyl-7-deacetylpyripyropene A]",10 to 100,+++ (50 > specific activity > 10),–
"CC(=O)OCC1(C)C2C[C@@H](Cl)[C@@]3(C)Oc4cc(-c5cccnc5)oc(=O)c4[C@H](O)C3[C@@]2(C)CC[C@@H]1OC(C)=O (stereo partly drawn) [PRD 065, 7-(R)-chloro-7-(S)-deacetylpyripyropene A]",–,+ (5 > specific activity > 1),100 to 1000
"CC(=O)OCC1(C)C2C[C@H](OC(=O)Cn3cnnn3)[C@@]3(C)Oc4cc(-c5cccnc5)oc(=O)c4[C@H](O)C3[C@@]2(C)CC[C@@H]1OC(C)=O (stereo partly drawn) [PRD 092, 7-O-2-(1H-tetrazol-1-yl)acetyl-7-deacetylpyripyropene A]",–,+ (5 > specific activity > 1),100 to 1000
"CC(=O)OCC1(C)C2C[C@H](OC(=O)c3ccccc3F)[C@@]3(C)Oc4cc(-c5cccnc5)oc(=O)c4[C@H](O)C3[C@@]2(C)CC[C@@H]1OC(C)=O (stereo partly drawn) [PRD 028, 7-o-fluorobenzoyl-7-deacetylpyripyropene A]",10 to 100,+++ (50 > specific activity > 10),–
"CC(=O)OCC1(C)C(OC(C)=O)CCC2(C)C1CC(OC(=O)c1ccccc1I)C1(C)Oc3cc(-c4cccnc4)oc(=O)c3C(O)C21 (stereo not drawn) [PRD 004, 7-o-iodobenzoyl-7-deacetylpyripyropene A]",–,+++ (50 > specific activity > 10),–
"C=Cc1cccc(C(=O)O[C@H]2CC3C(C)(COC(C)=O)[C@@H](OC(C)=O)CC[C@]3(C)C3[C@@H](O)c4c(cc(-c5cccnc5)oc4=O)O[C@@]32C)c1 (stereo partly drawn) [PRD 013, 7-m-vinylbenzoyl-7-deacetylpyripyropene A]",< 10,+++ (50 > specific activity > 10),–
"COc1ccc(CCC(=O)O[C@H]2CC3C(C)(COC(C)=O)[C@@H](OC(C)=O)CC[C@]3(C)C3[C@@H](O)c4c(cc(-c5cccnc5)oc4=O)O[C@@]32C)cc1 (stereo partly drawn) [PRD 084, 7-O-3-(4-methoxyphenyl)propionyl-7-deacetylpyripyropene A]",10 to 100,+++ (50 > specific activity > 10),–
"CC(=O)OCC1(C)C2C[C@H](OC(=O)CCc3ccccc3)[C@@]3(C)Oc4cc(-c5cccnc5)oc(=O)c4[C@H](O)C3[C@@]2(C)CC[C@@H]1OC(C)=O (stereo partly drawn) [PRD 100, 7-O-3-phenylpropionyl-7-deacetylpyripyropene A]",< 10,+++ (50 > specific activity > 10),–
"CC12COC(c3ccccc3)O[C@H]1CC[C@@]1(C)C2C[C@H](OC(=O)c2cccc(Br)c2)[C@@]2(C)Oc3cc(-c4cccnc4)oc(=O)c3[C@H](O)C12 (stereo partly drawn) [PRD 052, 1,11-O-benzylidene-7-O-m-bromobenzoyl-1,7,11-trideacetylpyripyropene A]",10 to 100,++ (10 > specific activity > 5),–

# From patent US8519128B2, “Pyripyropene derivatives having an ACAT2-inhibiting activity” (The Kitasato Institute, priority 2007, dated 2013)
